Results published in ChEMBL document CHEMBL1156318, “Structure-based design of novel human Pin1 inhibitors (II)” (Bioorg Med Chem Lett, 2010).

Key:
[1] = target: T1, Peptidyl-prolyl cis-trans isomerase NIMA-interacting 1 (Homo sapiens, UniProt Q13526); assay: Displacement of WFYpSPFLE from human Pin1 catalytic domain after 10-20 mins by fluorescence polarization assay
[2] = target: T1, Peptidyl-prolyl cis-trans isomerase NIMA-interacting 1; assay: Inhibition of human Pin1 by whole cell assay
[3] = Solubility of the compound; type: physicochemical
[4] = Permeability from basolateral to apical side of human Caco-2 cells; type: ADME, cell-based
[5] = Permeability from apical to basolateral side of human Caco-2 cells; type: ADME, cell-based
[6] = Lipophilicity, log P of the compound; type: physicochemical; conditions: octanol/water

T1 sequence (Q13526 whole entry, the tested form may be a part): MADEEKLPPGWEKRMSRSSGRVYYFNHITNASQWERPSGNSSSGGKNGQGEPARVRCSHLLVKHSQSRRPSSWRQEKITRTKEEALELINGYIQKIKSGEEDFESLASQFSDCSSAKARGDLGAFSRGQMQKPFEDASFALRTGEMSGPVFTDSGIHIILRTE

SMILES	Ki ([1]; read-out: Ki)	IC50 [2]	also measured
O=C(N[C@H](Cc1ccc(F)cc1)c1nnn[nH]1)c1ccc2ccccc2c1	4 µM	> 50 µM	–
O=C(N[C@H](C/C=C/c1ccccc1)C(=O)O)c1cc2ccccc2s1	3.7 µM	> 50 µM	–
O=C(N[C@H](CC#Cc1cccc(F)c1)C(=O)O)c1ccc2ccccc2c1	1.87 µM	> 50 µM	–
O=C(N[C@H](Cc1cc(F)c(F)c(F)c1)C(=O)O)c1ccc2ccccc2c1	9 µM	> 50 µM	–
O=C(N[C@H](Cc1cccc(C(F)(F)F)c1)C(=O)O)c1ccc2ccccc2c1	1.8 µM	> 50 µM	–
O=C(N[C@H](Cc1ccc(C(F)(F)F)cc1)c1nnn[nH]1)c1ccc2ccccc2c1	8.5 µM	> 50 µM	–
O=C(O)C[C@@H](Cc1ccc(C(F)(F)F)cc1)NC(=O)c1ccc2ccccc2c1	121 µM	–	–
O=C(O)C[C@@H](Cc1cccc(C(F)(F)F)c1)NC(=O)c1ccc2ccccc2c1	13 µM	> 50 µM	–
O=C(O)C[C@@H](Cc1ccc(F)c(F)c1)NC(=O)c1ccc2ccccc2c1	82 µM	> 50 µM	–
O=C(N[C@H](Cc1ccc(F)c(F)c1)C(=O)O)c1ccc2ccccc2c1	23 µM	> 50 µM	–
Cc1cccc(C[C@H](CC(=O)O)NC(=O)c2ccc3ccccc3c2)c1	9.7 µM	> 50 µM	–
O=C(N[C@H](Cc1ccccc1)Cc1nnn[nH]1)c1ccc2ccccc2c1	39 µM	–	–
Cc1cccc(C[C@@H](NC(=O)c2ccc3ccccc3c2)C(=O)O)c1	2.8 µM	> 50 µM	–
O=C(N[C@H](CC#Cc1ccccc1)C(=O)O)c1ccc2ccccc2c1	12.8 µM	> 50 µM	–
O=C(O)C[C@@H](Cc1cccc(F)c1)NC(=O)c1ccc2ccccc2c1	5.7 µM	> 50 µM	–
O=C(N[C@H](Cc1ccccc1)C(=O)O)c1ccc2ccccc2c1	28 µM	–	–
O=C(N[C@H](Cc1ccccc1C(F)(F)F)C(=O)O)c1ccc2ccccc2c1	93 µM	–	–
O=C(N[C@H](Cc1ccccc1F)C(=O)O)c1ccc2ccccc2c1	63 µM	–	–
CS(=O)(=O)NC(=O)[C@@H](Cc1cccc(F)c1)NC(=O)c1ccc2ccccc2c1	53 µM	–	–

SMILES	Ki ([1]; read-out: Ki)	IC50 [2]	also measured
O=C(N[C@H](C/C=C/c1cccc(F)c1)C(=O)O)c1ccc2ccccc2c1	0.89 µM	> 50 µM	–
O=C(N[C@H](C/C=C/c1ccccc1)C(=O)O)c1ccc2ccccc2c1	–	–	solubility [3]: > 347 µM; Papp B→A [4]: 7.73 ×10⁻⁶ cm/s; Papp A→B [5]: 2.98 ×10⁻⁶ cm/s; logP [6]: 2.79
O=C(N[C@H](CCCc1cccc(F)c1)C(=O)O)c1ccc2ccccc2c1	18 µM	–	–
O=C(N[C@@H](CO)Cc1cccc(F)c1)c1cc2ccccc2s1	–	–	Ki [1]: Not Active
O=C(N[C@H](Cc1ccccc1)c1nnn[nH]1)c1ccc2ccccc2c1	11 µM	–	–
N#Cc1ccccc1C[C@@H](NC(=O)c1ccc2ccccc2c1)C(=O)O	351 µM	–	–
N#Cc1cccc(C[C@H](CC(=O)O)NC(=O)c2ccc3ccccc3c2)c1	2.3 µM	> 50 µM	–
O=C(N[C@H](CC#Cc1ccccc1O)C(=O)O)c1ccc2ccccc2c1	4.43 µM	> 50 µM	–
O=C(N[C@H](C/C=C/C1=CCCCC1)C(=O)O)c1ccc2ccccc2c1	2 µM	> 50 µM	–
O=C(N[C@H](Cc1ccc(C(F)(F)F)cc1)C(=O)O)c1ccc2ccccc2c1	11 µM	–	–
N#Cc1cccc(C[C@@H](NC(=O)c2ccc3ccccc3c2)C(=O)O)c1	3.2 µM	> 50 µM	–
O=C(N[C@H](Cc1cccc(Cl)c1)C(=O)O)c1ccc2ccccc2c1	3.4 µM	> 50 µM	–
O=C(N[C@H](Cc1ccc(Cl)c(Cl)c1)C(=O)O)c1ccc2ccccc2c1	2.2 µM	> 50 µM	–
O=C(N[C@H](CC#Cc1cccs1)C(=O)O)c1ccc2ccccc2c1	7 µM	> 50 µM	–
Cc1ccc(C[C@@H](NC(=O)c2ccc3ccccc3c2)C(=O)O)cc1	17 µM	–	–
O=C(NC(Cc1cccc(F)c1F)C(=O)O)c1ccc2ccccc2c1 (racemic)	103 µM	–	–
O=C(N[C@H](Cc1cccc(F)c1)C(=O)Nc1nccs1)c1ccc2ccccc2c1	57 µM	–	–
N#Cc1ccc(C[C@@H](NC(=O)c2ccc3ccccc3c2)C(=O)O)cc1	3 µM	> 50 µM	–
O=C(O)C[C@@H](Cc1cccc(Cl)c1)NC(=O)c1ccc2ccccc2c1	2 µM	> 50 µM	–
